Assay results from PMC7698842, “Lanostane Triterpenoid Metabolites from a Penares sp. Marine Sponge Protect Neuro-2a Cells against Paraquat Neurotoxicity” (Molecules, 2020).

How the values were obtained:
[1] = Cytotoxicity toward Neuro-2a cells (MTT assay); type: cell-based, mouse; conditions: mouse, Neuro-2a neuroblastoma cells, 24 h
Protocol: The cells of mouse neuroblastoma cell line Neuro-2a (ATCC® CCL-131™; American Type Culture Collection, Manassas, VA, USA) were cultured in Dulbecco’s modified Eagle’s medium (DMEM) containing 10% fetal bovine serum (Biolot, St. Petersburg, Russia) and 1% penicillin/streptomycin (Biolot, St. Petersburg, Russia) at 37 °C in a humidified atmosphere with 5% (v/v) CO2. Initially, cells were incubated in cultural flasks until sub-confluent (~80%). For testing, Neuro-2a cells were seeded in 96- or 6-well plates and experiments were started after 24 h.
(§1) The cells (1 × 10^4 cells/well of a 96-well plate) were incubated with different concentrations of studied compounds during 24 h. After that, cell viability was determined by the MTT (3-(4,5-dimethylthiazol-2-yl)-2,5-diphenyltetrazolium bromide) method according to the manufacturer’s instructions (Sigma-Aldrich, St. Louis, MO, USA). Absorbance of the converted formazan was measured using a Multiskan FC microplate photometer (Thermo Scientific, Waltham, MA, USA) at λ = 570 nm. The results were presented as percent of control data, and concentration of cell viability inhibition on 50% (IC50) was calculated.

[2] = test system: Hsp70 level in Neuro-2a cells; experiment: Hsp70 level analysis by Western blot in Neuro-2a cells; type: cell-based, mouse; conditions: compound 10 µM 1 h, then PQ 500 µM 24 h
Protocol: The Hsp70 expression was detected by Western blot analysis. Cell suspensions (1.6 × 10^5 cells/well of a 6-well plate) were seeded and treated with studied compounds at a concentration of 10 µM for 1 h. After that, PQ (500 µM) was added and cells were incubated during 24 h. Cells incubated without PQ and compounds and with PQ alone were used as positive and negative controls, respectively. Cells were washed by cold PBS (BioloT, Russia) twice and lysed by radioimmunoprecipitation assay (RIPA) buffer (BioloT, St. Peterburg, Russia). The amount of proteins was measured by the Bradford method and equal samples (25 µg) were prepared using sample buffer. Proteins were separated with sodium dodecyl sulphate (SDS) electrophoresis in 10% polyacrylamide gel. The electrophoretically separated proteins were transferred onto the polyvinylidene difluoride (PVDF) membrane Whatman (Sigma-Aldrich, St. Louis, MO, USA) using a semi-dry transfer apparatus (Helicon, Moscow, Russia). […] The peroxidase reaction was visualized by an enhanced chemiluminescence (ECL) kit according to the instructions of the manufacturer (Sigma-Aldrich, St. Louis, MO, USA) using the VersaDoc Imaging System (Bio-Rad, Hercules, CA, USA).

[3] = test system: ROS level in PQ-treated Neuro-2a cells; experiment: ROS level analysis in PQ-treated Neuro-2a cells (H2DCFDA); type: cell-based, mouse; conditions: tested at 1 and 10 μM, PQ 500 µM 1 h
Protocol: The cells (1 × 10^4 cells/well of a 96-well plate) were incubated with compound solutions (1 and 10 µM) during 1 h. Then, PQ was added to cell suspension to a resulting concentration of 500 µM for incubation during 1 h. Cells incubated without PQ and compounds and with PQ alone were used as positive and negative controls, respectively. The 20 µL of 2,7-dichlorodihydrofluorescein diacetate solution (H2DCFDA, Molecular Probes, Eugene, OR, USA) was added to each well (10 µM, final concentration) and the plate was incubated for an additional 10 min at 37 °C. The intensity of dichlorofluorescin fluorescence was measured with a PHERAstar FS plate reader (BMG Labtech, Ortenberg, Germany) at λex = 485 nm and λem = 518 nm. The data were processed by MARS Data Analysis v. 3.01R2 (BMG Labtech, Ortenberg, Germany). The results were presented as percent of positive control data.

[4] = DPPH radical scavenging assay (cell-free); conditions: 30 min, MeOH
Protocol: The 2,2-diphenyl-1-picryl-hydrazyl-hydrate (DPPH) radical scavenging activity was tested as described previously. The compounds were dissolved in MeOH, and the solutions (120 µL) were dispensed into wells of a 96-well microplate. The DPPH (Sigma-Aldrich, Steinheim, Germany) was dissolved in MeOH at a concentration of 7.5 × 10^−3 M and the solution (30 µL) was added to each well. The concentrations of tested compounds in the mixtures were 10 and 100 µM. Ascorbic acid was used as a positive control. The mixtures were shaken and left for 30 min. The absorbance of the resulting solutions was measured at λ = 520 nm with a MultiscanFC plate reader (Thermo Scientific, Waltham, MA, USA). The concentration scavenging 50% of the DPPH radical (EC50) was calculated for each compound.

[5] = test system: mitochondrial membrane potential in PQ-treated Neuro-2a cells; experiment: Mitochondrial membrane potential detection (TMRM) in PQ-treated Neuro-2a cells; type: cell-based, mouse; conditions: compound 10 μM, PQ 500 µM 1 h
Protocol: The cells (1 × 10^4 cells/well of a 96-well plate) were incubated with compound solutions (1 and 10 µM) during 1 h. Then, PQ was added to cell suspension to a resulting concentration of 500 µM for incubation during 1 h. Cells incubated without PQ and compounds and with PQ alone were used as positive and negative controls, respectively. The tetramethylrhodamine methyl (TMRM) (Sigma-Aldrich, St. Louis, MO, USA) solution at 500 nM was added in each well and cells were incubated for 30 min at 37 °C. The intensity of fluorescence was measured with a PHERAstar FS plate reader (BMG Labtech, Ortenberg, Germany) at λex = 540 nm and λem = 590 nm. The data were processed by MARS Data Analysis v. 3.01R2 (BMG Labtech, Ortenberg, Germany). The results were presented as percent of positive control data.

[6] = test system: PQ-treated Neuro-2a cells; experiment: PQ-treated Neuro-2a cell viability (MTT assay); type: cell-based, mouse; conditions: compound 1 and 10 µM, PQ 500 µM, 24 h
Protocol: as §1
The cells (1 × 10^4 cells/well of a 96-well plate) were treated with studied compounds at concentrations of 1 and 10 µM for 1 h and then 500 µM of PQ (Sigma-Aldrich, St. Louis, MO, USA) was added to the neuroblastoma cells. Cells incubated without PQ and compounds and with PQ alone were used as positive and negative controls, respectively. The viability of cells was measured after 24 h using MTT and FDA methods. The results were presented as percent of positive control data.

In the case of `CC(C)=CCC[C@@H](C)[C@H]1CC[C@@]2(C(=O)O)C3=C(CC[C@]12C)[C@@]1(C)CCC(=O)C(C)(C)[C@@H]1CC3` [Compound 4, penasterone], the activity at 24 h, 10 µM ([1]; Neuro-2a cell viability, 10 μM, read-out: Cytotoxicity (MTT Assay) % of Control at 10 μM) is reported as 95.3 ± 2.7%, the IC50 at 24 h ([1]; Neuro-2a cells) is reported as greater than 100 µM and the “increase of Hsp70 level in PQ-treated cells” value [2] is reported as 56%. For the same compound, the “concentrations at which ROS content in PQ-treated cells was reduced” value [3] was “effective at concentrations of 1 and 10 μM”, the EC50 [4] was greater than 100 µM and the “increase of intensity of TMRM fluorescence (PQ-induced mitochondrial dysfunction diminished)” value [5] was 28%. For the same compound, the “effect on PQ-treated cell viability (MTT assay)” value [6] was “did not show any effect”.
